Measured values as given in article PMC3844044 (Journal of medicinal chemistry, 2013).

Experiments:
[1] = target: purified human 20S proteasome (Homo sapiens, UniProt P28074); experiment: Inhibition of the chymotryptic-like activity of purified human 20S proteasome; assay type: biochemical
[2] = test system: NF-κB mediated gene transcription; details: read-out: NF-κB-luc IC50; Table 1; cell culture, previously reported; cited from earlier work
[3] = conversion to inactive aromatic imidazole 5; ref 13b; cited from earlier work
[4] = test system: human myelomonocytic THP-1 cells; experiment: Cell viability, THP-1 wild type cells, 72 hours; assay type: cell-based; details: screened at 10 μM and 5 μM
[5] = test system: bortezomib-resistant THP-1 cell line (BTZ500); experiment: Cell viability, bortezomib-resistant THP-1 cell line; assay type: cell-based, human
[6] = test system: proteasome; details: read-out: reported IC50 for proteasome inhibition; cited from earlier work

CCOC(=O)[C@]1(c2ccccc2)N=C(c2ccccc2)N[C@@H]1c1ccccc1 [compound 11]
proteasome inhibitory activity (in words) [1]: depleted of all activity

CCOC(=O)[C@]1(c2ccccc2)N=C(c2ccccc2)N(Cc2ccccc2)[C@@H]1c1ccncc1 [compound 20]
proteasome inhibitory activity (in words) [1]: inactive

CCOC(=O)[C@]1(c2ccccc2)N=C(c2ccccc2)N(S(=O)(=O)c2ccc(C)cc2)[C@@H]1c1ccccc1 [compound 14]
proteasome inhibitory activity (in words) [1]: depleted of activity

c1ccc(CN2C(c3ccccc3)=N[C@@H](c3ccccc3)[C@H]2c2ccccc2)cc1 [compound 3]
proteasome inhibitory activity (in words) [1]: depleted of activity
IC50 [2]: > 10000 nM
stability upon standing [3]: slowly isomerised and dehydrogenated

c1ccc(Cn2c(-c3ccccc3)nc(-c3ccccc3)c2-c2ccccc2)cc1 [compound 5]
proteasome inhibitory activity (in words) [1]: depleted of activity
IC50 [2]: > 10000 nM

CCOC(=O)[C@]1(c2ccccc2)N=C(c2ccc(OC)cc2)N(Cc2ccccc2)[C@@H]1c1ccc(N)cc1 [compound 37]
cytotoxic activity (in words), THP-1 wild type [4]: weak cytotoxic activity
cytotoxic activity (in words), bortezomib-resistant BTZ500 ([5]; screened at 10 μM and 5 μM): weak cytotoxic activity

CCOC(=O)[C@]1(c2ccccc2)N=C(c2ccccc2)N(C(C)=O)[C@@H]1c1ccccc1 [compound 12]
proteasome inhibitory activity (in words) [1]: depleted of activity

CC(C)C[C@H](NC(=O)[C@H](Cc1ccccc1)NC(=O)c1cnccn1)B(O)O [Bortezomib, bortezomib, reference compound]
% cell viability Resistant ([5]; BTZ500, bortezomib at 0.5 μM, 72 hours): unable to induce significant cytotoxicity

c1ccc(CN2CCN=C2c2ccccc2)cc1 [compound 4]
proteasome inhibitory activity (in words) [1]: depleted of activity
IC50 [2]: > 10000 nM

CCOC(=O)[C@]1(c2ccccc2)N=C(c2ccccc2)N(C(=O)c2ccccc2)[C@@H]1c1ccccc1 [compound 13]
proteasome inhibitory activity (in words) [1]: depleted of activity

c1ccc(CN2C(c3ccccc3)=N[C@H](c3ccccc3)[C@H]2c2ccccc2)cc1 [compound 2]
stability upon standing [3]: slowly isomerised and dehydrogenated

CCOC(=O)[C@]1(c2ccccc2)N=C(c2ccccc2)N(Cc2ccccc2)[C@@H]1c1ccc(NCc2ccccc2)cc1 [compound 29]
IC50 ([1]; IC50 proteasome inhibition): 500 nM
